Experimental data reported in paper PMC3605511, “Tumor P-Glycoprotein Correlates with Efficacy of PF-3758309 in in vitro and in vivo Models of Colorectal Cancer” (Frontiers in Pharmacology, 2013).

Assays:
[1] = system: CUCRC042 CRC PDTX model; assay: Patient derived tumor xenograft efficacy, CUCRC042; format: in vivo, mice; conditions: 25 mg/kg orally twice daily, 22–56 days, end of study tumor volumes
Experimental: For patient tumor xenografts, surgical specimens of patients undergoing either removal of a primary or metastatic tumor at the University of Colorado Hospital are implanted subcutaneously into five mice for each patient with a 10-G trochar. After a subsequent growth and passage in mice, tumors are excised, and expanded into cohorts for treatment (n = 6–15 per group). Mice were treated with PF-309 or vehicle (0.5% methylcellulose) for 22–56 days (until control tumor volume reach ∼1500 mm^3) twice daily (BID) by oral gavage (PO). Monitoring of mice and measurements of tumors were conducted as described above. % Growth Inhibition= (average control volume−average treated volume)/average control volume×100% In addition to the cell line xenografts, we also treated 12 different patient derived tumor xenograft (PDTX) CRC models with PF-309 (Figure 6). We were unable to assess how ABCB1 gene expression correlated with efficacy in these models. The PDTX models are propagated in vivo, are not immortalized, and are not grown in in vitro culture. […] Tumor and plasma sample pairs were collected from animals at the end of study for eight tumor models (three cell line xenografts and five PDTX models) and concentrations of PF-309 were measured. […]

[2] = system: COLO205; assay: Cell proliferation assay, COLO205; format: cell-based; conditions: Homo sapiens, COLO 205; COLO205, 72 h, SRB assay
Experimental: Cytotoxic/proliferation effects were determined using the sulforhodamine B (SRB) assay (Skehan et al., [1990]) or by resazurin. Briefly, cells in logarithmic growth phase were transferred to 96 well flat bottom plates with lids. One-hundred microliter cell suspensions containing 1500–5000 viable cells were plated into each well and incubated overnight prior to exposure with increasing concentrations of PF-309 for 3–5 days, dependent upon cell type. Media was removed and cells were fixed with cold 10% trichloroacetic acid for 30 min at 4°C. Cells were then washed with water and stained with 0.4% SRB (Fisher Sci., Pittsburgh, PA, USA) for 30 min at room temperature, washed again with 1% acetic acid, followed by stain solubilization with 10 mM tris at room temperature. The plate was then read on a plate reader (Biotek Synergy 2, Winooski, VT, USA) set at an absorbance wavelength of 565 nm. Cell proliferation curves were derived from the raw absorbance (OD) data.
Since PF-309 appeared to be a strong P-gp and BCRP substrates, we sought to evaluate if the transporters influenced sensitivity in vitro. We evaluated the sensitivity of CRC cell lines to PF-309 treatment in a panel of 27 lines. Cells were exposed to PF-309 at a range of concentrations for 72 h and cell content measured by SRB assay (see Pitts et al., [2013]). […]

[3] = system: SW48 cell line xenograft; assay: CRC cell line xenograft efficacy, SW48; format: in vivo, mice; conditions: 25 mg/kg orally twice daily, 14–28 days, end of study tumor volumes
Experimental: For cell line xenografts, CRC cells were harvested in exponential phase growth and resuspended in a 1:1 mixture of serum-free RPMI 1640 and Matrigel (BD Biosciences). Five to ten million cells per mouse were injected subcutaneously into the flank using a 23-gauge needle. Mice were monitored daily for signs of toxicity and were weighed twice weekly. Tumor size was evaluated twice per week by caliper measurements using the following formula: tumor volume = length × width^2 × 0.52. When tumors reached 200–300 mm^3 mice were randomized into two groups with at least 10 tumors per group. Mice were then treated for 14–28 days (until control tumor volume reach ∼1500 mm^3) with either vehicle control (0.5% methylcellulose), or PF-3758309 (25 mg/kg) twice daily by oral gavage.
Human tumor xenograft models were used to evaluate the efficacy of PF-309 in vivo. Eleven different CRC cell line tumor xenografts were treated with 25 mg/kg PF-309 twice daily by oral gavage for 14–28 days (until control tumor volumes reached ∼1500 mm^3). Tumor volumes were measured throughout the study and the % growth inhibition was calculated from the average end of study tumor volumes by:
% Growth Inhibition= (average control volume−average treated volume)/average control volume×100%

Q: `Cc1nc(Nc2n[nH]c3c2CN(C(=O)N[C@H](CN(C)C)c2ccccc2)C3(C)C)c2sccc2n1` [PF-309] was tested. Which “% Growth inhibition” value [1] did it give?
A: 52%

Q: What about the IC50 [2] of the same compound?
A: 4.2 ± 1.4 nM

Q: And the “% Growth inhibition” value [3]?
A: 45%
